Experimental data taken from patent publication US20240383852A1, “ANTI-VIRAL COMPOUNDS” (INFEX Therapeutics Limited, priority 2021, published 2024).
pIC50: −log10 of the molar value. Counter-ions that a name gives are not always drawn.

Legend:
SARS-CoV-2 PLpro = target: T1, SARS-CoV-2 PLpro (Severe acute respiratory syndrome coronavirus 2, UniProt P0DTD1); test: biochemical; conditions: 60 nM papain-like protease, 50 μM Z-RLRGG-AMC, pH 7.5, 37° C.; read-out: SARS-CoV-2 PLpro IC50
T1 construct: containing 60 nM papain-like protease

[1] = test system: human Hep G2 cells (ATCC HB-8065); test: Cytotoxicity in Hep G2 cells (CellTiter-Glo); assay type: cell-based; conditions: Hep G2 cells, 100 μM test article, 24-hour exposure

| SMILES | pIC50 (SARS-CoV-2 PLpro) | % Cell Viability [1] |
| --- | --- | --- |
| Cc1ccc(N2CCN(C)CC2)cc1C(=O)N[C@H](C)c1cccc(-c2c(C)nn(C)c2C)c1 [Example 62, 2-Methyl-5-(4-methylpiperazin-1-yl)-N-[(1R)-1-[3-(1,3,5-trimethylpyrazol-4-yl)phenyl]ethyl]benzamide] | > 5.70 | 56.6% |
| Cc1ccc(N2CCN(C)CC2)cc1C(=O)N[C@H](C)c1cccc(-c2ccccc2CO)c1 [Example 80, N-[(1R)-1-[3-[2-(Hydroxymethyl)phenyl]phenyl]ethyl]-2-methyl-5-(4-methylpiperazin-1-yl)benzamide] | > 5.70 | 79.5% |
| COc1ccc([C@@H](C)NC(=O)c2cc(N3CC4CNCC4C3)ccc2C)cc1OC (stereo partly drawn) [Example 36, 5-(2,3,3a,4,6,6a-Hexahydro-1H-pyrrolo[3,4-c]pyrrol-5-yl)-N-[(1R)-1-(3,4-dimethoxyphenyl)ethyl]-2-methyl-benzamide] | > 5.70 | 98.0% |
| COc1cc(-c2cnn(C)c2)cc([C@@H](C)NC(=O)c2cc(N3CCCNCC3)ccc2C)c1 [Example 263, 5-(1,4-Diazepan-1-yl)-N-[(1R)-1-[3-methoxy-5-(1-methylpyrazol-4-yl)phenyl]ethyl]-2-methyl-benzamide] | > 5.70 | 56.4% |
| Cc1ccc(N2CCN(C)CC2)cc1C(=O)N[C@H](C)c1cncc(-c2cn(C)nc2C)c1 [Example 225, N-[(1R)-1-[5-(1,3-Dimethylpyrazol-4-yl)-3-pyridyl]ethyl]-2-methyl-5-(4-methylpiperazin-1-yl)benzamide] | > 5.00 | 95.8% |
| COc1ccc([C@@H](C)NC(=O)c2cc(N3CCN(C)CC3)ccc2C)cc1Br [Example 180, N-[(1R)-1-(3-Bromo-4-methoxy-phenyl)ethyl]-2-methyl-5-(4-methylpiperazin-1-yl)benzamide] | > 5.70 | 93.4% |
| Cc1ccc(N2CCN(C)CC2)cc1C(=O)N[C@H](C)c1cccc(C(=O)NC[C@H](O)CO)c1 [Example 309, N-[(1R)-1-[3-[[(2S)-2,3-Dihydroxypropyl]carbamoyl]phenyl]ethyl]-2-methyl-5-(4-methylpiperazin-1-yl)benzamide] | > 5.30 | 118.2% |
| COc1cc(-c2cnn(C)c2)cc([C@@H](C)NC(=O)c2cc(N3CCNC4(CC4)C3)ccc2C)c1 [Example 264, 5-(4,7-Diazaspiro[2.5]octan-7-yl)-N-[(1R)-1-[3-methoxy-5-(1-methylpyrazol-4-yl)phenyl]ethyl]-2-methyl-benzamide] | > 5.70 | 68.5% |
| Cc1ccc(N2CCN(C)CC2)cc1C(=O)N[C@H](C)c1cccc(-c2ccsc2)c1 [Example 50, 2-Methyl-5-(4-methylpiperazin-1-yl)-N-[(1R)-1-[3-(3-thienyl)phenyl]ethyl]benzamide] | > 5.70 | 2.3% |
| Cc1ccc(N2CCN(C)CC2)cc1C(=O)N[C@H](C)c1cccc(-c2ccc(CNC3CCCC3)s2)c1 [Example 78, N-[(1R)-1-[3-[5-[(Cyclopentylamino)methyl]-2-thienyl]phenyl]ethyl]-2-methyl-5-(4-methylpiperazin-1-yl)benzamide Dihydrochloride Salt] | > 5.70 | 1.3% |
| COc1ccc([C@@H](C)NC(=O)c2cc(N3CC4CN(C)CC4C3)ccc2C)cc1-c1cnn(C)c1 (stereo partly drawn) [Example 240, N-[(1R)-1-[4-Methoxy-3-(1-methylpyrazol-4-yl)phenyl]ethyl]-2-methyl-5-(2-methyl-1,3,3a,4,6,6a-hexahydropyrrolo[3,4-c]pyrrol-5-yl)benzamide] | > 5.70 | 64.3% |
| Cc1ccc(N2CCN[C@@H](C(C)C)C2)cc1C(=O)N[C@H](C)c1cccc2ccccc12 [Example 19, 5-[(3S)-3-Isopropylpiperazin-1-yl]-2-methyl-N-[(1R)-1-(1-naphthyl)ethyl]benzamide] | > 5.70 | 1.0% |
| COc1cc(-c2cn(C)nc2C)cc([C@@H](C)NC(=O)c2cc(N3CCN4CCCC4C3)ccc2C)c1 (stereo partly drawn) [Example 256, 5-(3,4,6,7,8,8a-Hexahydro-1H-pyrrolo[1,2-a]pyrazin-2-yl)-N-[(1R)-1-[3-(1,3-dimethylpyrazol-4-yl)-5-methoxy-phenyl]ethyl]-2-methyl-benzamide] | > 5.70 | 70.1% |
| Cc1nnc(-c2cccc([C@@H](C)NC(=O)c3cc(N4CCN(C)CC4)ccc3C)c2)s1 [Example 39, 2-Methyl-5-(4-methylpiperazin-1-yl)-N-[(1R)-1-[3-(5-methyl-1,3,4-thiadiazol-2-yl)phenyl]ethyl]benzamide] | > 5.70 | 90.5% |
| COc1ccc([C@@H](C)NC(=O)c2cc(N3CCN(C)CC3)ccc2C)cc1-c1cccc(C(C)(C)O)c1 [Example 204, N-[(1R)-1-[3-[3-(1-Hydroxy-1-methyl-ethyl)phenyl]-4-methoxy-phenyl]ethyl]-2-methyl-5-(4-methylpiperazin-1-yl)benzamide] | > 5.70 | 81.4% |
| COc1cc(-c2cc(C(=O)N(C)C)n(C)c2)cc([C@@H](C)NC(=O)c2cc(N3C[C@H]4C[C@@H]3CN4C)ccc2C)c1 [Example 290, 4-[3-Methoxy-5-[(1R)-1-[[2-methyl-5-[(1R,4R)-5-methyl-2,5-diazabicyclo[2.2.1]heptan-2-yl]benzoyl]amino]ethyl]phenyl]-N,N,1-trimethyl-pyrrole-2-carboxamide] | > 5.70 | 72.9% |
| Cc1ccc(N2CCN(C)CC2)cc1C(=O)N[C@H](C)c1cncc(-c2ccccc2)c1 [Example 223, 2-Methyl-5-(4-methylpiperazin-1-yl)-N-[(1R)-1-(5-phenyl-3-pyridyl)ethyl]benzamide] | > 5.70 | 59.8% |
| Cc1ccc(N2CCN(C)CC2)cc1C(=O)N[C@H](C)c1cccc(C#N)c1 [Example 34, N-[(1R)-1-(3-Cyanophenyl)ethyl]-2-methyl-5-(4-methylpiperazin-1-yl)benzamide] | > 5.00 | 97.8% |
| Cc1ccc(N2CCN(C)CC2)cc1C(=O)N[C@H](C)c1cccc(-c2cccc(C(=O)NCCCN(C)C)c2)c1 [Example 93, N-[(1R)-1-[3-[3-[3-(Dimethylamino)propylcarbamoyl]phenyl]phenyl]ethyl]-2-methyl-5-(4-methylpiperazin-1-yl)benzamide] | > 5.70 | 41.9% |
| COc1ccc([C@@H](C)NC(=O)c2cc(N3C[C@H]4C[C@@H]3CN4C)ccc2C)cc1-c1csc(C(=O)NC2CC2)c1 [Example 287, N-Cyclopropyl-4-[2-methoxy-5-[(1R)-1-[[2-methyl-5-[(1R,4R)-5-methyl-2,5-diazabicyclo[2.2.1]heptan-2-yl]benzoyl]amino]ethyl]phenyl]thiophene-2-carboxamide] | > 5.70 | 43.4% |
| COCCNC(=O)c1cc(-c2cccc([C@@H](C)NC(=O)c3cc(N4CCN(C)CC4)ccc3C)c2)cs1 [Example 100, N-(2-Methoxyethyl)-4-[3-[(1R)-1-[[2-methyl-5-(4-methylpiperazin-1-yl)benzoyl]amino]ethyl]phenyl]thiophene-2-carboxamide] | > 5.70 | 65.9% |
| Cc1ccc(N2CCN(C)CC2)cc1C(=O)N[C@H](C)c1cccc(-c2cncnc2)c1 [Example 59, 2-Methyl-5-(4-methylpiperazin-1-yl)-N-[(1R)-1-(3-pyrimidin-5-ylphenyl)ethyl]benzamide] | > 5.00 | 86.0% |
| Cc1ccc(N2CCN(C)CC2)cc1C(=O)N[C@H](C)c1ccc(F)c(Br)c1 [Example 187, N-[(1R)-1-(3-Bromo-4-fluoro-phenyl)ethyl]-2-methyl-5-(4-methylpiperazin-1-yl)benzamide] | > 5.70 | 44.0% |
| CC(=O)N1CCN(c2cccc(C(=O)N[C@H](C)c3cccc4ccccc34)c2)CC1 [Example 159, 3-(4-Acetylpiperazin-1-yl)-N-[(1R)-1-(1-naphthyl)ethyl]benzamide] | < 4.00 | 81.5% |
| COc1ccc([C@@H](C)NC(=O)c2cc(N3C[C@H]4C[C@@H]3CN4C)ccc2C)cc1Br [Example 181, N-[(1R)-1-(3-Bromo-4-methoxy-phenyl)ethyl]-2-methyl-5-[(1R,4R)-5-methyl-2,5-diazabicyclo[2.2.1]heptan-2-yl]benzamide] | > 5.70 | 18.9% |
| Cc1ccc(N2C[C@H]3C[C@@H]2CN3C)cc1C(=O)N[C@H](C)c1cccc(-c2cccc(C(C)(C)O)c2)c1 [Example 57, N-[(1R)-1-[3-[3-(1-Hydroxy-1-methyl-ethyl)phenyl]phenyl]ethyl]-2-methyl-5-[(1R,4R)-5-methyl-2,5-diazabicyclo[2.2.1]heptan-2-yl]benzamide] | > 5.70 | 0.9% |
| COc1ccc([C@@H](C)NC(=O)c2cc(N3CCCN(C)CC3)ccc2C)cc1OC [Example 13, N-[(1R)-1-(3,4-Dimethoxyphenyl)ethyl]-2-methyl-5-(4-methyl-1,4-diazepan-1-yl)benzamide] | > 5.00 | 103.8% |
| COc1ccc([C@@H](C)NC(=O)c2cc(N3CCN(C)CC3)ccc2C)cc1-c1cnn(CCO)c1 [Example 284, N-[(1R)-1-[3-[1-(2-Hydroxyethyl)pyrazol-4-yl]-4-methoxy-phenyl]ethyl]-2-methyl-5-(4-methylpiperazin-1-yl)benzamide] | > 5.70 | 101.3% |
| Cc1ccc(N2CCN(CCC(=O)O)CC2)cc1C(=O)N[C@H](C)c1cccc(-c2cccc(CO)c2)c1 [Example 170, 3-[4-[3-[[(1R)-1-[3-[3-(Hydroxymethyl)phenyl]phenyl]ethyl]carbamoyl]-4-methyl-phenyl]piperazin-1-yl]propanoic Acid] | > 5.30 | 107.9% |
